Data as given in patent publication US20200197409A1, “HEPATITIS B VIRUS SURFACE ANTIGEN INHIBITOR” (FUJIAN COSUNTER PHARMACEUTICAL CO., LTD., priority 2017, published 2020).
Read-outs that look alike come from different tables or passages of the source.

Experiments:
HBsAg = conditions: read-out: HBsAg EC50; HepG2.2.15 cells, supernatant on the 8th day
Method: The HBV DNA content in HepG2.2.15 cells culture supernatant was determined by real-time quantitative qPCR assay (real time-qPCR), and the HBV surface antigen content was determined by enzyme linked immunosorbent assay (ELISA). The inhibitory effect of the compound on HBV was evaluated by the EC50 value of the compound.
2.1 Cell Line: HepG2.2.15 Cells
3.1 HepG2.2.15 cells (4×10^4 cells/well) were seeded into a 96-well plate and incubated overnight at 37° C. under 5% CO2.
3.2 On the 2nd day, the compound was diluted into 8 concentrations with 3-fold gradient. The compounds with different concentrations were added into the culture wells in duplicate wells. The final concentration of DMSO in the culture medium was 0.5%, 10 μM ETV was used as a 100%/inhibition control, and 0.5% DMSO was used as a 0% inhibition control.
3.3 On the 5th day, the culture medium was replaced with a fresh medium containing the compound.
3.4 On the 8th day, the culture medium in the culture well was collected, and a part of the sample was taken for ELISA to determine the content of hepatitis B virus S antigen, a part of the sample was taken to extract DNA with a high-throughput DNA purification kit (Qiagen-51162).
3.8 Determination of hepatitis B virus S antigen content by ELISA
50 μL of sample and standard sample were taken and added into a reaction plate respectively, followed by addition of 50 μL of enzyme conjugate into each well, the mixture was shaken and well-mixed, and placed in a bath at 37° C. for 60 minutes. The plate was then washed with washing solution 5 times, followed by addition of 50 μL of illuminating substrate into each well, the mixture was well-mixed and allowed to react at room temperature for 10 minutes in the dark. Chemiluminescence intensity was determined by a ELISA.
Calculation of the percentage of inhibition:% Inh.=(1−value of sample/value of DMSO control)×100
Calculation of EC50: The 50% inhibitory concentration (EC50) value of the compound on HBV was calculated by GraphPad Prism software.

[1] = Microsomal metabolism stability, human; assay type: in vitro ADME; conditions: human liver microsomes 0.5 mg/mL, 1 μM, NADPH, 37° C.
Method: (§1) The microsomal metabolism stability of the test compound (Embodiment 6) in three species was determined. 1 μM test compound and microsomes (0.5 mg/mL) supplemented with NADPH regeneration system were incubated at 37° C. The positive controls were testosterone (3A4 substrate), propafenone (2D6 substrate) and diclofenac (2C9 substrate), respectively. The positive control and microsomes (0.5 mg/mL) supplemented with NADPH regeneration system were incubated at 37° C. Samples at different time points (0, 5, 10, 20, 30, and 60 minutes) were mixed directly with cold acetonitrile containing an internal standard to terminate the reaction. The compound and microsomes were incubated for 60 minutes without the NADPH regeneration system. One parallel was set at each time point (n=1). The samples were analyzed by LC/MS/MS. The concentration of the compound was indicated by the ratio of the peak area of the analyte to the peak area of the internal standard.

[2] = Microsomal metabolism stability, mouse; assay type: in vitro ADME; conditions: mouse liver microsomes 0.5 mg/mL, 1 μM, NADPH, 37° C.
Method: as §1

[3] = Single-dose pharmacokinetic study on mouse; assay type: in vivo, C57BL/6 mice
HBV = test: In vivo pharmacodynamic study of hydrodynamic injection mouse HBV model (HDI-HBV) via tail vein; set-up: species or system Balb/c mice; conditions: mouse plasma
Method: Anti-hepatitis B virus activity of the compound of the embodiment in vivo was evaluated by HDI mice model.
Balb/c mice, 10% HP—F-CD as vehicle, test compound, RG7834, ETV (Entecavir), pAAV2-HBV 1.3mer plasmid (extracted with Qiagen EndoFree Plasmid Giga kit), main reagents including QIAamp96 DNA kit and FasStart Universal Probe Mast (ROX). The main instruments used in this experiment included centrifuge (Beckman Allegra X-15R), tissue grinder (QIAGEN-Tissue lyser II) and spectrophotometer (Thermo-NANODROP 1000).
b) On day 0, all mice were subjected to hydrodynamic injection with HBV plasmid DNA solution via tail vein. The plasmid DNA was pre-treated with sterile physiological saline before injection and stored at 4° C. until use. Plasmid DNA solution was injected via the tail vein at a dose of 8% of the body weight of the mouse within 5 seconds.
c) On the 1st day to the 7th day, the mice were administered with the compound or solvent by oral gavage for 7 days.
d) On the 1st day, 3rd day and 5th day, the blood was collected from the submandibular vein of the mice, and heparin sodium was used as an anticoagulant. The blood sample was centrifuged at 7,000×g, 4° C. to prepare the plasma for the determination of HBV DNA.
e) On the 7^h day, all mice were euthanized by CO2. The blood was collected from the heart to prepare plasma, and the liver tissue was collected. Two left hepatic lobe were isolated, the size of which was 70-100 mg, and were frozen by liquid nitrogen immediately after collection. One of the hepatic lobe was used for HBV DNA detection, and the other was used for backup.
The content of HBsAg in the serum of the mice was determined by ELISA (enzyme linked immunosorbent assay). The experimental procedure refers to the specification of HBsAg ELISA kit.
The inhibitory activity of the test compound on HBV replication on the mouse HDI model was determined by measuring the content of HBsAg in the plasma of the mice.

[4] = Single dose neurotoxicity test on rats (functional observation combination test, FOB); assay type: in vivo; conditions: 24 hours after single intragastric dose of 1000 mg/kg and 300 mg/kg, male SD rats
Method: In this experiment, SD rats were intragastrically administrated with RG7834 and Embodiment 6 in a single dose, and the potential neurobehavioral toxicities to SD rats were evaluated by functional observation combination test (FOB). A total of 25 SD male rats were used in this experiment. At the start of the administration, the animals were about 7 to 8 weeks old, males weighed between 225.50 and 285.70 g, and […]. […] The animals in the control group were administered with the menstruum. All animals were administered at a volume of 10 mL/kg, and subjected to the FOB test.

For COCCCOc1cc2c(cc1OC)-c1cc(=O)c(C(=O)O)cn1[C@H](C(C)(C)C)CO2 [Embodiment 6], the EC50 (HBsAg) was 3.88 nM, the “remaining ratio at T=60 min” value [1] was 109.1% and the “remaining ratio at T=60 min” value [2] was 102.5%. The Apparent distribution volume ([3]; IV: 1 mg/kg PO: 2 mg/kg) was 5.79 L/kg, the Bioavailability ([3]; IV: 1 mg/kg PO: 2 mg/kg) was 91.6% and the Highest concentration ([3]; IV: 1 mg/kg PO: 2 mg/kg) was 1055 nM. For the same compound, the half-life ([3]; male, C57BL/6, plasma, IV: 1 mg/kg PO: 2 mg/kg) was 2.46 h, the clearance ([3]; male, C57BL/6, plasma, IV: 1 mg/kg PO: 2 mg/kg, read-out: Clearance rate) was 75 mL/min/kg and the AUC(0-t) ([3]; male, C57BL/6, plasma, IV: 1 mg/kg, read-out: AUC0-last (Intravenous injection)) was 0.502 µM·h. For the same compound, the AUC(0-t) ([3]; male, C57BL/6, plasma, PO: 2 mg/kg, read-out: AUC0-last (Oral)) was 0.876 µM·h, the “Log HBsAg (IU/mL) (Ave. value)” value (HBV; dosing time day 1, 30 mg/kg QD gavage) was 3.86 IU/mL and the “Log HBsAg (IU/mL) (Ave. value)” value (HBV; dosing time day 3, 30 mg/kg QD gavage) was 4.09 IU/mL. For the same compound, the “Log HBsAg (IU/mL) (Ave. value)” value (HBV; dosing time day 5, 30 mg/kg QD gavage) was 3.27 IU/mL, the “Log HBsAg (IU/mL) (Ave. value)” value (HBV; dosing time day 7, 30 mg/kg QD gavage) was 1.07 IU/mL and the “magnification of the pupil associated with the test compound” value [4] was “did not appear”.
